{"source": "ChEMBL document CHEMBL1146099", "about": "“Anthranilic acid based CCK1 receptor antagonists and CCK-8 have a common step in their \"receptor desmodynamic processes\"” (J Med Chem, 2006)", "target": "T1, Cholecystokinin receptor type A (Homo sapiens, UniProt P32238)", "T1 sequence (P32238 whole entry)": "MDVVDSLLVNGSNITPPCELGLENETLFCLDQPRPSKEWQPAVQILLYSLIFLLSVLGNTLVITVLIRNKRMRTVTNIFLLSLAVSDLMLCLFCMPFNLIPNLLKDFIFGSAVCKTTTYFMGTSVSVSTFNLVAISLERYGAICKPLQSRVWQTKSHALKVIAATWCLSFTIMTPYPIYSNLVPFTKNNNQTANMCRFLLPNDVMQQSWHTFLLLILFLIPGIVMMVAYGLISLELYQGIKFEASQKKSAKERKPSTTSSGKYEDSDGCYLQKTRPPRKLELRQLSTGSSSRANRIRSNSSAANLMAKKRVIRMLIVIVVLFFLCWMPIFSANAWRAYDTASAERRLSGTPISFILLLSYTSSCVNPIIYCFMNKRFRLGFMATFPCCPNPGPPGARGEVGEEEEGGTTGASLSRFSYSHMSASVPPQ", "assay": "Displacement of [111In]DTPA-Glu-Gly-[Tyr27(SO3H)]-CCK8 from human CCK1 receptor in A431 cells", "format": "cell-based, A-431"}
{"smiles": "O=C(Nc1ccccc1C(=O)NC(Cc1ccccc1)C(=O)O)c1cc2ccccc2[nH]1", "note": "(racemic)", "values": [{"measurement": "IC50", "value": 197, "unit": "nM"}]}
{"smiles": "CC(=O)N/C(=C/c1ccccc1)C(=O)Nc1ccccc1C(=O)NC(Cc1ccccc1)C(=O)O", "note": "(racemic)", "values": [{"measurement": "IC50", "value": 12700, "unit": "nM"}]}
{"smiles": "O=C(/C=C/c1ccccc1)Nc1ccccc1C(=O)NC(Cc1ccccc1)C(=O)O", "note": "(racemic)", "values": [{"measurement": "IC50", "value": 4000, "unit": "nM"}]}
{"smiles": "CC(NC(=O)c1ccccc1NC(=O)c1cc2ccccc2[nH]1)C(=O)O", "note": "(racemic)", "values": [{"measurement": "IC50", "value": 2800, "unit": "nM"}]}
{"smiles": "CCCCCN(CCCOC)C(=O)C(CCC(=O)O)NC(=O)c1ccc(Cl)c(Cl)c1", "note": "(stereo not given) [LOXIGLUMIDE]", "values": [{"measurement": "IC50", "value": 195, "unit": "nM"}]}
